The source made the active and inactive calls. The calls are words filed in the database; no cut-off is given here.
Experiments:
HepG2 [1] = assay: Antiproliferative activity against human HepG2 cells assessed as reduction in cell growth incubated for 48 hrs by MTT assay; format: functional, cell-based; conditions: HepG2, 48 h
HepG2 [2] = assay: Inhibition of EGFR/MAPK signalling pathway in human HepG2 cells assessed as reduction in phosphorylation of MEK at 2 uM incubated up to 48 hrs by Western blot analysis; format: cell-based
HepG2 [3] = assay: Inhibition of EGFR/MAPK signalling pathway in human HepG2 cells assessed as reduction in phosphorylation of ERK 1/2 at 2 uM incubated up to 48 hrs by Western blot analysis; format: cell-based
HepG2 [4] = assay: Inhibition of cell migration in human HepG2 cells at IC50 incubated for 48 hrs by phase contrast microscopy; format: functional
HepG2 [5] = assay: Inhibition of EGFR/MAPK signalling pathway in human HepG2 cells assessed as reduction in phosphorylation of EGFR at 2 uM incubated for 2 hrs by Western blot analysis; format: cell-based
HepG2 [6] = assay: Inhibition of EGFR/MAPK signalling pathway in human HepG2 cells assessed as reduction in phosphorylation of B-RAF at 2 uM incubated for 8 hrs by Western blot analysis; format: cell-based
HepG2 [7] = assay: Inhibition of EGFR/MAPK signalling pathway in human HepG2 cells assessed as reduction in phosphorylation of EGFR at 3 uM incubated for 48 hrs by Western blot analysis; format: cell-based
HepG2 [8] = assay: Inhibition of EGFR/MAPK signalling pathway in human HepG2 cells assessed as reduction in phosphorylation of B-RAF at 3 uM incubated for 24 hrs by Western blot analysis; format: cell-based
HepG2 [9] = assay: Inhibition of EGFR/MAPK signalling pathway in human HepG2 cells assessed as reduction in phosphorylation of ERK 1/2 at 3 uM incubated up to 48 hrs by Western blot analysis; format: cell-based
HepG2 [10] = assay: Inhibition of EGFR/MAPK signalling pathway in human HepG2 cells assessed as reduction in phosphorylation of MEK at 3 uM incubated up to 48 hrs by Western blot analysis; format: cell-based
HepG2 [11] = assay: Induction of cell cycle arrest in human HepG2 cells assessed as accumulation at G1 phase at 1 uM incubated for 24 hrs by flow cytometry analysis (reference value: 32.3%); format: functional
HepG2 [12] = assay: Induction of cell cycle arrest in human HepG2 cells assessed as accumulation at S phase at 1 uM incubated for 24 hrs by flow cytometry analysis (reference value: 26.1%); format: functional
HepG2 [13] = assay: Induction of cell cycle arrest in human HepG2 cells assessed as accumulation at G2 phase at 1 uM incubated for 24 hrs by flow cytometry analysis (reference value: 37.5%); format: functional
HepG2 [14] = assay: Induction of cell cycle arrest in human HepG2 cells assessed as accumulation at G1 phase at 2 uM incubated for 24 hrs by flow cytometry analysis (reference value: 32.3%); format: functional
HepG2 [15] = assay: Induction of cell cycle arrest in human HepG2 cells assessed as accumulation at S phase at 2 uM incubated for 24 hrs by flow cytometry analysis (reference value: 26.1%); format: functional
HepG2 [16] = assay: Induction of cell cycle arrest in human HepG2 cells assessed as accumulation at G2 phase at 2 uM incubated for 24 hrs by flow cytometry analysis (reference value: 37.5%); format: functional
HepG2 [17] = assay: Induction of cell cycle arrest in human HepG2 cells assessed as accumulation at G1 phase at 4 uM incubated for 24 hrs by flow cytometry analysis (reference value: 32.3%); format: functional
HepG2 [18] = assay: Induction of cell cycle arrest in human HepG2 cells assessed as accumulation at S phase at 4 uM incubated for 24 hrs by flow cytometry analysis (reference value: 26.1%); format: functional
HepG2 [19] = assay: Induction of cell cycle arrest in human HepG2 cells assessed as accumulation at G2 phase at 4 uM incubated for 24 hrs by flow cytometry analysis (reference value: 37.5%); format: functional
HepG2 [20] = assay: Inhibition of EGFR/MAPK signalling pathway in human HepG2 cells assessed as reduction in ELK phosphorylation incubated for 24 hrs by Western blot analysis; format: cell-based
HepG2 [21] = assay: Induction of apoptosis in human HepG2 cells assessed as increase in cleaved caspase-3 level at 2 uM incubated for 48 hrs by Western blot analysis; format: functional, cell-based
HepG2 [22] = assay: Induction of apoptosis in human HepG2 cells assessed as increase in cleaved caspase-9 level at 2 uM incubated for 48 hrs by Western blot analysis; format: functional, cell-based
HepG2 [23] = assay: Induction of apoptosis in human HepG2 cells assessed as increase in cleaved PARP-1 level at 2 uM incubated for 48 hrs by Western blot analysis; format: functional, cell-based

SMILES: COc1ccc2c(c1)CC[C@@H]1[C@@H]2CC[C@]2(C)C([C@@](C)(O)C(=O)/C=C/c3ccc(Br)cc3)=CC[C@@H]12
- IC50 (HepG2 [1]): 32 µM

SMILES: COc1ccc(/C=C/C(=O)[C@](C)(O)C2=CC[C@H]3[C@@H]4CCc5cc(OC)ccc5[C@H]4CC[C@]23C)cc1
- IC50 (HepG2 [1]): 2 µM

SMILES: COc1ccc2c(c1)CC[C@@H]1[C@@H]2CC[C@]2(C)C([C@](C)(O)C(=O)/C=C/c3ccc(Br)s3)=CC[C@@H]12
- IC50 (HepG2 [1]): 11 µM

SMILES: COc1ccc2c(c1)CC[C@@H]1[C@@H]2CC[C@]2(C)C([C@@](C)(O)C(=O)/C=C/c3ccc([N+](=O)[O-])cc3)=CC[C@@H]12
- IC50 (HepG2 [1]): 20 µM

SMILES: COc1ccc2c(c1)CC[C@@H]1[C@@H]2CC[C@]2(C)C([C@@](C)(O)C(=O)/C=C/c3ccc(F)cc3)=CC[C@@H]12
- IC50 (HepG2 [1]): 7 µM

SMILES: COc1ccc2c(c1)CC[C@@H]1[C@@H]2CC[C@]2(C)C([C@](C)(O)C(=O)/C=C/C(C)(C)O)=CC[C@@H]12
- inhibition (HepG2 [2]): Active
- IC50 (HepG2 [1]): 3 µM
- inhibition (HepG2 [3]): Active
- inhibition (HepG2 [4]): Active
- inhibition (HepG2 [5]): Active
- inhibition (HepG2 [6]): Active

SMILES: C#Cc1cccc(Nc2ncnc3cc(OCCOC)c(OCCOC)cc23)c1 [ERLOTINIB]
- inhibition (INH) (HepG2 [4]): 93%

SMILES: COc1ccc(/C=C/C(=O)[C@@](C)(O)C2=CC[C@H]3[C@@H]4CCc5cc(OC)ccc5[C@H]4CC[C@]23C)cc1
- IC50 (HepG2 [1]): 16 µM

SMILES: COc1ccc2c(c1)CC[C@@H]1[C@@H]2CC[C@]2(C)C([C@@](C)(O)C(=O)/C=C/C(C)(C)O)=CC[C@@H]12
- IC50 (HepG2 [1]): 2 µM
- inhibition (INH) (HepG2 [4]): 100%
- inhibition (HepG2 [7]): 90%
- inhibition (HepG2 [8]): Active
- inhibition (HepG2 [9]): Active
- inhibition (HepG2 [10]): Active
- Activity (HepG2 [11]): 36.1%
- Activity (HepG2 [12]): 23.4%
- Activity (HepG2 [13]): 38%
- Activity (HepG2 [14]): 37.6%
- Activity (HepG2 [15]): 23.2%
- Activity (HepG2 [16]): 34.1%
- Activity (HepG2 [17]): 41.1%
- Activity (HepG2 [18]): 37.4%
- Activity (HepG2 [19]): 21.1%
- inhibition (HepG2 [20]): Active
- Activity (HepG2 [21]): Active
- Activity (HepG2 [22]): Active
- Activity (HepG2 [23]): Active

SMILES: COc1ccc2c(c1)CC[C@@H]1[C@@H]2CC[C@]2(C)C([C@@](C)(O)C(=O)/C=C/c3ccc(Br)s3)=CC[C@@H]12
- IC50 (HepG2 [1]): 0.7 µM

SMILES: COc1ccc2c(c1)CC[C@@H]1[C@@H]2CC[C@]2(C)C([C@](C)(O)C(=O)/C=C/c3ccc([N+](=O)[O-])cc3)=CC[C@@H]12
- IC50 (HepG2 [1]): 29 µM

SMILES: COc1ccc2c(c1)CC[C@@H]1[C@@H]2CC[C@]2(C)C([C@@](C)(O)C(=O)/C=C/c3ccc(Cl)cc3)=CC[C@@H]12
- IC50 (HepG2 [1]): 25 µM

SMILES: COc1ccc2c(c1)CC[C@@H]1[C@@H]2CC[C@]2(C)C([C@](C)(O)C(=O)/C=C/c3ccc(F)cc3)=CC[C@@H]12
- IC50 (HepG2 [1]): 8 µM

SMILES: COc1ccc2c(c1)CC[C@@H]1[C@@H]2CC[C@]2(C)C([C@](C)(O)C(=O)/C=C/c3ccc(C(F)(F)F)cc3)=CC[C@@H]12
- IC50 (HepG2 [1]): 3 µM

SMILES: COc1ccc2c(c1)CC[C@@H]1[C@@H]2CC[C@]2(C)C([C@@](C)(O)C(=O)/C=C/c3ccc(Br)o3)=CC[C@@H]12
- IC50 (HepG2 [1]): 6 µM

SMILES: COc1ccc2c(c1)CC[C@@H]1[C@@H]2CC[C@]2(C)C([C@@](C)(O)C(=O)/C=C/c3ccc(C(F)(F)F)cc3)=CC[C@@H]12
- IC50 (HepG2 [1]): 2 µM
